The values below come from patent US4681879A, “11-substituted 5H,11H-pyrrolo[2,1-c][1,4]benzoxazepines as antipsychotic and analgesic agents” (Hoechst-Roussel Pharmaceuticals Inc., priority 1985, dated 1987).

Structures can show the parent of a compound that is named as a salt.

Assay [1] deals with apomorphine climbing. The assay is described as follows: Antipsychotic activity, climbing mice assay (apomorphine). Type of assay: in vivo, mice (CK-1 male). Particulars: Mus musculus; ip, 30 minutes prior to apomorphine 1.5 mg/kg sc. How it is done:
Antipsychotic activity is determined in the climbing mice assay by methods similar to those described by P. Protais, et al., Psychopharmacol., 50, 1 (1976) and B. Costall, Eur. J. Pharmacol., 50, 39 (1978).
The subject CK-1 male mice (23-27 grams) are group-housed under standard laboratory conditions. The mice are individually placed in wire mesh stick cages (4"×4" by 10") and are allowed one hour for adaptation and exploration of the new environment. Then apomorphine is injected subcutaneously at 1.5 mg/kg, a dose causing climbing in all subjects for 30 minutes. Compounds to be tested for antipsychotic activity are injected intraperitoneally 30 minutes prior to the apomorphine challenge at a screening dose of 10 mg/kg.
For evaluation of climbing, 3 readings are taken at 10, 20 and 30 minutes after apomorphine administration according to the following scale: […]
______________________________________
4 paws on bottom (no climbing)
2 paws on the wall (rearing)
4 paws on the wall (full climb)
Mice consistently climbing before the injection of apomorphine are discarded.
With full-developed apomorphine climbing, the animals are hanging onto the cage walls, rather motionless, over longer periods of time. By contrast, climbs due to mere motor stimulation usually last only a few seconds.
The climbing scores are individually totaled (maximum score: 6 per mouse over 3 readings) and the total score of the control group (vehicle intraperitoneally-apomorphine subcutaneously) is seet to 100%. ED50 values with 95% confidence limits, calculated by a linear regression analysis of some of the compounds of this invention are presented in Table 1.

In assay [2] the test system is 2-phenyl-1,4-benzoquinone-induced writhing. The assay is described as follows: Analgesic activity, 2-phenyl-1,4-benzoquinone-induced writhing test in mice. Type of assay: in vivo. As to conditions: Mus musculus, sc; read-out: ANALGESIC ACTIVITY (Phenylquinone Writhing) ED50. The text has this: Compounds of the present invention are useful as analgesic agents due to their ability to alleviate pain in mammals. […] Exptl. Biol. Med., 95, 729 (1957)].
In general terms: Writhing tests count abdominal constrictions after an irritant is injected.

The term ED50 denotes the dose at which the effect has come halfway, by size or by number of responders. Consider `Cc1[nH]c2ccccc2c1CCCN1CCC(C2Oc3ccccc3Cn3cccc32)CC1.O=C(O)C(=O)O` (stereo not drawn) [11-{1-[3-(2-Methylindol-3-yl)propyl]piperidin-4-yl}-5H,11H-pyrrolo[2,1-c][1,4]benzoxazepine oxalate], for which the ED50 in assay [1] turned out to be 2.3 mg/kg.

Regarding `O=C(O)C(=O)O.O=c1[nH]c2ccccc2n1CCN1CCC(C2Oc3ccccc3Cn3cccc32)CC1` (stereo not drawn) [11-{1-[2-(1,3-Dihydro-2-oxo-2H-benzimidazol-1-yl)ethyl]piperidin-4-yl}-5H,11H-pyrrolo[2,1-c][1,4]benzoxazepine oxalate], the values for the ED50 in assay [2] and in assay [1] were 0.9 mg/kg and 3.2 mg/kg, respectively.

`O=[N+]([O-])c1ccc(CCN2CCC(C3Oc4ccccc4Cn4cccc43)CC2)cc1` (stereo not drawn) [11-{1-[2-(4-Nitrophenylethyl)]piperidin-4-yl}-5H,11H-pyrrolo[2,1-c][1,4]benzoxazepine]: the ED50 in assay [2] was found to be 4.1 mg/kg; in assay [1], 3.5 mg/kg.

Consider `c1ccc(OCCCN2CCC(C3Oc4ccccc4Cn4cccc43)CC2)cc1` (stereo not drawn) [11-{1-[3-(Phenoxy)propyl]piperidin-4-yl}-5H,11H-pyrrolo[2,1-c][1,4]benzoxazepine], for which the ED50 in assay [2] came out at 4.2 mg/kg; in assay [1], 1.2 mg/kg.

In turn, `Oc1ccc(CCN2CCC(C3Oc4ccccc4Cn4cccc43)CC2)cc1` (stereo not drawn) [11-{1-[2-(4-Hydroxyphenyl)ethyl]piperidin-4-yl}-5H,11H-pyrrolo[2,1-c][1,4]benzoxazepine] yielded an ED50 in assay [1] of 0.3 mg/kg.

Turning to `O=C(O)C(=O)O.c1ccc(CCN2CCC(C3Oc4ccccc4Cn4cccc43)CC2)cc1` (stereo not drawn) [11-{1-[2-(Phenyl)ethyl]piperidin-4-yl}-5H,11H-pyrrolo[2,1-c][1,4]benzoxazepine oxalate], the 50% effective dose (ED50) in assay [1] was 3.1 mg/kg.

Compound `c1ccc(CCCN2CCC(C3Oc4ccccc4Cn4cccc43)CC2)cc1` (stereo not drawn) [11-{1-[3-(Phenyl)propyl]piperidin-4-yl}-5H,11H-pyrrolo[2,1-c][1,4[benzoxazepine oxalate] registered an ED50 in assay [1] of 2 mg/kg.

Regarding `COc1ccc(CCN2CCC(C3Oc4ccccc4Cn4cccc43)CC2)cc1.O=C(O)C(=O)O` (stereo not drawn) [11-{1-[2-(4-Methoxyphenyl)ethyl]piperidin-4-yl}-5H,11H-pyrrolo[2,1-c][1,4]benzoxazepine oxalate], the ED50 in assay [2] and in assay [1] was 0.3 mg/kg each time.

For `CCOc1ccc(CCN2CCC(C3Oc4ccccc4Cn4cccc43)CC2)cc1` (stereo not drawn) [11-{1-[2-(4-Ethoxyphenylethyl)]piperidin-4-yl}-5H,11H-pyrrolo[2,1-c][1,4]benzoxaxepine], the figures for the ED50 in assay [2] and in assay [1] were 1.9 mg/kg and 1.3 mg/kg, respectively.

Turning to `COc1ccc(CCN2CCC(C3Oc4ccccc4Cn4cccc43)CC2)cc1OC` (stereo not drawn) [11-{1-[2-(3,4-Dimethoxyphenyl)ethyl]piperidin-4-yl}-5H,11H-pyrrolo[2,1-c][1,4]benzoxazepine], the median effective dose (ED50) in assay [2] was 0.1 mg/kg; in assay [1] it was 0.3 mg/kg.

In turn, `COc1cccc(CCN2CCC(C3Oc4ccccc4Cn4cccc43)CC2)c1OC.O=C(O)/C=C/C(=O)O` (stereo not drawn) [11-{1-[2-(2,3-Dimethoxyphenyl)ethyl]piperidin-4-yl}-5H,11H-pyrrolo[2,1-c][1,4]benzoxazepine fumarate] yielded an ED50 in assay [1] of 3 mg/kg.

Compound `COc1cccc(CCN2CCC(C3Oc4ccccc4Cn4cccc43)CC2)c1` (stereo not drawn) [11-{1-[2-(3-Methoxyphenyl)ethyl]piperidin-4-yl}-5H,11H-pyrrolo[2,1-c][1,4]benzoxazepine] showed an ED50 in assay [1] of 0.9 mg/kg.

In assay [1], `Cc1ccc(CCN2CCC(C3Oc4ccccc4Cn4cccc43)CC2)cc1` (stereo not drawn) [11-{1-[2-(4-Methylphenyl)ethyl]piperidin-4-yl}-5H,11H-pyrrolo[2,1-c][1,4]benzoxazepine] yielded an ED50 of 1.2 mg/kg.

On to `O=C(CCN1CCC(C2Oc3ccccc3Cn3cccc32)CC1)c1ccccc1.O=C(O)C(=O)O` (stereo not drawn) [1-Phenyl-3-[4-[5H,11H-pyrrolo[2,1-c][1,4]benzoxazepin-11-yl]-1-piperidinyl]-1-propanone oxalate], for which the ED50 in assay [2] and in assay [1] was 1.6 mg/kg in each case.

For `Clc1ccc(CCN2CCC(C3Oc4ccccc4Cn4cccc43)CC2)cc1` (stereo not drawn) [11-{1-[2-(4-Chlorophenylethyl)]piperidin-4-yl}-5H,11H-pyrrolo[2,1-c][1,4]benzoxazepine], the ED50 in assay [1] worked out at 2.1 mg/kg.

Take `CCCCN1CCC(C2Oc3ccccc3Cn3cccc32)CC1` (stereo not drawn) [11-[(1-Butyl)piperidin-4-yl]-5H,11H-pyrrolo[2,1-c][1,4]benzoxazepine]: the figures for the ED50 in assay [2] and in assay [1] were 0.4 mg/kg and 3.8 mg/kg, respectively.

On to `c1csc(CCN2CCC(C3Oc4ccccc4Cn4cccc43)CC2)c1` (stereo not drawn) [11-{1-[2-(2-Thienyl)ethyl]piperidin-4-yl}-5H,11H-pyrrolo[2,1-c][1,4benzoxazepine], for which, in assay [1], the ED50 was determined as 1.8 mg/kg.

`O=C(O)C(=O)O.O=c1[nH]c2ccccc2n1CCCN1CCC(C2Oc3ccccc3Cn3cccc32)CC1` (stereo not drawn) [11-{1-[3-(1,3-Dihydro-2-oxo-2H-benzimidazol-1-yl)propyl]piperidin-4-yl}-5H,11H-pyrrolo[2,1-c][1,4]benzoxazepine oxalate]: the ED50 in assay [2] came out at 0.3 mg/kg; in assay [1], 0.7 mg/kg.

The compound `Fc1ccc(CCN2CCC(C3Oc4ccccc4Cn4cccc43)CC2)cc1.O=C(O)C(=O)O` (stereo not drawn) [11-{1-[2-(4-Fluorophenyl)ethyl]piperidin-4-yl}-5H,11H-pyrrolo[2,1-c][1,4]benzoxazepine oxalate] had an ED50 in assay [1] of 3.1 mg/kg.

In the case of `Fc1ccc2c(CCCN3CCC(C4Oc5ccccc5Cn5cccc54)CC3)noc2c1.O=C(O)C(=O)O` (stereo not drawn) [11-{1-[3-(6-Fluoro-1,2-benzisoxazol-3-yl)propyl]piperidin-4-yl}-5H,11H-pyrrolo[2,1-c][1,4]benzoxazepine oxalate], the ED50 in assay [2] came to 5.1 mg/kg; in assay [1], 2.1 mg/kg.

On to `CN(C)c1ccc(CCN2CCC(C3Oc4ccccc4Cn4cccc43)CC2)cc1` (stereo not drawn) [11-{1-[2-(4-Dimethylaminophenylethyl)]piperidin-4-yl}-5H,11H-pyrrolo[2,1-c][1,4]benzoxazepine], for which the ED50 in assay [2] stood at 0.4 mg/kg; in assay [1], 1.2 mg/kg.

In assay [1], `O=C(CCN1CCC(C2Oc3ccccc3Cn3cccc32)CC1)c1ccc(Cl)cc1` (stereo not drawn) [1-(4-Chlorophenyl)-3-[4-]5H,11H-pyrrolo[2,1-c][1,4]benzoxazepin-11-yl]-1-piperidinyl]-1-propanone] displayed an ED50 of 5.5 mg/kg.
